Experimental data taken from ChEMBL document CHEMBL4673299, “A new sesquineolignan and four new neolignans isolated from the leaves of Piper betle, a traditional medicinal plant in Myanmar” (Bioorg Med Chem Lett, 2021).

Experiments:
[1] = system: RAW264.7; assay: Anti-inflammatory activity in murine RAW264.7 cells assessed as inhibition of LPS-induced NO production; format: functional, cell-based; details: Mus musculus
[2] = system: RAW264.7; assay: Anti-inflammatory activity in murine RAW264.7 cells assessed as inhibition of LPS-induced NO production at 50 uM relative to control; format: functional; details: Mus musculus

| IC50 [1] [µM] | Structure (SMILES) | inhibition at 50 µM [2] [%] |
| --- | --- | --- |
| 45.9 | C=CCc1cc(O)c(OC)cc1C/C=C/c1ccc(OC)c(O)c1 | – |
| – | C=CCc1cc(O)c2c(c1)-c1cc(O)c(O)cc1C(C=C)O2 (centres undefined) | < 50 |
| – | COc1cc(/C=C/C=O)ccc1O [CONIFERYL ALDEHYDE] | < 50 |
| 26.4 | O=C/C=C/c1ccc(O)cc1 [p-HYDROXYCINNAMALDEHYDE] | – |
| – | C=CCc1cc(O)c(O)cc1-c1cc(OC)c(O)cc1CC=C | < 50 |
| – | C=CCc1ccc(O)c(OC)c1 [EUGENOL] | < 50 |
| 40.5 | C=CCc1cc(O)c(O)cc1-c1cc(O)c(O)cc1CC=C | – |
| – | COc1cc(/C=C/CO)ccc1O [CONIFERYL ALCOHOL] | < 50 |
| – | COC(=O)/C=C/c1ccc(O)cc1 [METHYL P-HYDROXYCINNAMATE] | < 50 |
| – | C=CCc1cc(O)c2oc3cc(O)c(O)c(CC=C)c3c2c1 | < 50 |
| 4.8 | C=CCc1ccc(O)c(O)c1 [HYDROXYCHAVICOL] | – |
| – | COc1cc(C=O)ccc1O [VANILLIN] | < 50 |
| 33.8 | CNC(=N)NCCC[C@H](N)C(=O)O [TILARGININE] | – |
| 9.87 | C=CCc1ccc2c(c1)O[C@@H](c1ccc(O)c(O)c1)[C@H](Cc1cc(O)c(O)cc1CC=C)O2 | – |
